Reference: US11254651B2, “Histone methyltransferase inhibitors” (GLOBAL BLOOD THERAPEUTICS, INC., priority 2016, dated 2022)
Counter-ions that a name gives are not always drawn.

What follows are compounds tested against T1, G9a (Homo sapiens, UniProt Q96KQ7) (assay: G9a AlphaLISA enzymatic activity assay). Conditions: 0.15 nM G9a, 15 uM S-adenosyl-methionine, 100 nM biotinylated histone 3 peptide (1-21), 1 hour room temperature.
T1 sequence (Q96KQ7 1-1210): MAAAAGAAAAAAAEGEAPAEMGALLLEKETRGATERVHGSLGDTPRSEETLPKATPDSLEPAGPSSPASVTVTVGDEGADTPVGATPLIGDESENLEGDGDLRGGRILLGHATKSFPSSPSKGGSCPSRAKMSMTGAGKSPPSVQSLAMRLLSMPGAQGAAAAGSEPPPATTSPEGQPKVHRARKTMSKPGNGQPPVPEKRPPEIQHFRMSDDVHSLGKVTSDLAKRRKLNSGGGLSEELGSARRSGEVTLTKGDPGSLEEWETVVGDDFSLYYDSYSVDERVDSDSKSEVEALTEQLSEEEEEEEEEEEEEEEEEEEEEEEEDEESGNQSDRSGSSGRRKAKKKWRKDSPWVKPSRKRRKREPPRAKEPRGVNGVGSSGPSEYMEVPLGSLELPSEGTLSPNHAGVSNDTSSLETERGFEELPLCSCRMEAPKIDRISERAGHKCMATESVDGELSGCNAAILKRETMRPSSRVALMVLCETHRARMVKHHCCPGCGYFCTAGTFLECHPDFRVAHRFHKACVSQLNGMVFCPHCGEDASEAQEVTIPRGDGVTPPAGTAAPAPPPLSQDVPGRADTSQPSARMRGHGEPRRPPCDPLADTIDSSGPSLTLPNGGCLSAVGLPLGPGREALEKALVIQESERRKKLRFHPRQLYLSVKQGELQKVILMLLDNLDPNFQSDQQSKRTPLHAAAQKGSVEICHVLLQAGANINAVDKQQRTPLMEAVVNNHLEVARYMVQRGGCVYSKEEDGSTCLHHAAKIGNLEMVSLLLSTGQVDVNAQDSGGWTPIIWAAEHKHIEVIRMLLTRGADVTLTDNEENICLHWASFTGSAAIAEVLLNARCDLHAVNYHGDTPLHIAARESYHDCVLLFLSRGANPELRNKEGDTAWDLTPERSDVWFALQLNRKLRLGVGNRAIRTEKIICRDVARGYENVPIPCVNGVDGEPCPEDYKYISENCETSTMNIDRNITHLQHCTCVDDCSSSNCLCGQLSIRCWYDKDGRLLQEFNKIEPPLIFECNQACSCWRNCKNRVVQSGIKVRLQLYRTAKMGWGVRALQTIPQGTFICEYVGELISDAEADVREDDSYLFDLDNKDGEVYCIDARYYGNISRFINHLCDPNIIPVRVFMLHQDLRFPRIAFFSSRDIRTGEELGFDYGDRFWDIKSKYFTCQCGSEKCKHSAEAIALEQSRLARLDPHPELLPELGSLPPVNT
Assay type: biochemical
Description: The G9a AlphaLISA assay was used to detect the methyl modifications of a biotinylated histone H3 peptide by the compounds. These modifications are done by the histone methyl transferase activity of the G9a enzyme. The assay consists of reading a chemiluminescent signal at 615 nm; this signal is generated by a laser excitation at 680 nm that transfers a reactive singlet oxygen between the donor beads and acceptor beads. Donor beads are streptavidin conjugated and bind to the biotin on the peptide. Acceptor beads are conjugated with an antibody that recognizes the specific G9a methyl mark on the peptide. If there is a methyl mark on the peptide, the acceptor beads will bind to the peptide. Upon binding, the acceptor beads will be in close proximity (<200 nm) of the donor beads and when the donor beads are excited, the transfer of the oxygen can occur and a strong signal will be generated. If there is no methyl mark, the interaction between beads will not occur and signal will be at background levels.
For the assay, the following buffer was used to set up reactions: 50 mM Tris-HCl pH9, 50 mM NaCl, 0.01% Tween-20 and 1 mM DTT (added fresh prior to starting the reactions). The assay is set up by adding a final concentration of 0.15 nM G9a, 15 uM S-adenosyl-methionine and, 100 nM biotinylated histone 3 peptide (1-21). The reaction is incubated at room temperature for 1 hour, and subsequently quenched by the addition of the acceptor beads (anti-H3k9me2 AlphaLISA acceptor beads, PerkinElmer #AL117) at a final concentration of 20 ug/mL. The acceptor beads are incubated for 1 hour. After 1 hour, the donor beads are added at a final concentration of 20 ug/mL (Alpha Streptavidin donor beads, PerkinElmer #6760002). Donor beads are incubated for 0.5 hours. Both donor and acceptor beads are resuspended in AlphaLISA 5X Epigenetics Buffer 1 Kit (PerkinElmer #AL008) prior to addition to the reaction. All manipulations and incubations with the donor and acceptor beads are done in subdued light. Signal is detected in an EnVision plate reader in Alpha mode (see ACS Med Chem Lett. 2014 Jan. 2; 5(2):205-9. doi: 10.1021/m1400496h. eCollection 2014. Discovery and development of potent and selective inhibitors of histone methyltransferase g9a.)
Percent inhibition was calculated for each compound dilution and the concentration that produced 50% inhibition was calculated. This value is presented as the IC50.

Structure (SMILES)	IC50
COc1cc2c(NC3CC(OC)C3)c3c(nc2cc1OCCCN1CCCC1)CCC3 (stereo not shown) [Entry 56, 7-methoxy-N-(3-methoxycyclobutyl)-6-[3-(pyrrolidin-1-yl)propoxy]-1H,2H,3H-cyclopenta[b]quinolin-9-amine formate]	16 nM
COc1cc2c(NCC3CC3)c3c(nc2cc1OCC1CCN(C)C1)CCC3 (stereo not shown) [Entry 52, N-(cyclopropylmethyl)-7-methoxy-6-[(1-methylpyrrolidin-3-yl)methoxy]-1H,2H,3H-cyclopenta[b]quinolin-9-amine formate]	65 nM
COc1cc2c(NC3CC3)c3c(nc2cc1OCCCN1CCCC1)CCC3 [Entry 31, N-cyclopropyl-7-methoxy-6-[3-(pyrrolidin-1-yl)propoxy]-1H,2H,3H-cyclopenta[b]quinolin-9-amine trifluoroacetate]	17.5 nM
COc1cc2c(Nc3ccn(C)n3)c3c(nc2cc1OCCCN1CCCC1)CCC3 [Entry 70, N-{7-methoxy-6-[3-(pyrrolidin-1-yl)propoxy]-1H,2H,3H-cyclopenta[b]quinolin-9-yl}-1-methyl-1H-pyrazol-3-amine formate]	35.8 nM
COc1cc2c(NC(C)C)c3c(nc2cc1OCCCN1CCCC1)CCC3 [Entry 19, 7-methoxy-N-(propan-2-yl)-6-[3-(pyrrolidin-1-yl)propoxy]-1H,2H,3H-cyclopenta[b]quinolin-9-amine formate]	10 nM
COc1cc2c(NC(C3CC3)C3CC3)c3c(nc2cc1OCCCN1CCCC1)CCC3 [Entry 65, N-(dicyclopropylmethyl)-7-methoxy-6-[3-(pyrrolidin-1-yl)propoxy]-1H,2H,3H-cyclopenta[b]quinolin-9-amine formate]	7.7 nM
COc1cc2c(NCCO)c3c(nc2cc1OCCCN1CCCC1)CCC3 [Entry 34, 2-({7-methoxy-6-[3-(pyrrolidin-1-yl)propoxy]-1H,2H,3H-cyclopenta[b]quinolin-9-yl}amino)ethan-1-ol formate]	7.6 nM
COc1cc2c(NC3CCN(C)CC3)c3ccccc3nc2cc1OCCCN1CCCC1 [Entry 4, 2-methoxy-N-(1-methylpiperidin-4-yl)-3-[3-(pyrrolidin-1-yl)propoxy]acridin-9-amine trifluoroacetate]	1.1 nM
COc1cc2c(Nc3ccccn3)c3c(nc2cc1OCCCN1CCCC1)CCC3 [Entry 40, N-{7-methoxy-6-[3-(pyrrolidin-1-yl)propoxy]-1H,2H,3H-cyclopenta[b]quinolin-9-yl}pyridin-2-amine formate]	150 nM
COc1cc2c(NC3CCOCC3)c3cc(C)ccc3nc2cc1OCCCN1CCCC1 [Entry 114, 2-methoxy-7-methyl-N-(oxan-4-yl)-3-[3-(pyrrolidin-1-yl)propoxy]acridin-9-amine formate]	54.3 nM
COc1cc2c(NC3CC4CCC(C3)O4)c3ccccc3nc2cc1OCCCN1CCCC1 (stereo not shown) [Entry 80, 2-methoxy-N-{8-oxabicyclo[3.2.1]octan-3-yl}-3-[3-(pyrrolidin-1-yl)propoxy]acridin-9-amine formate]	65.3 nM

More lines, now with the values ahead:

IC50	Structure (SMILES)
26.1 nM	CNc1c2ccccc2nc2cc(OCCCN3CCCC3)c(Cl)cc12 [Entry 9, 2-chloro-N-methyl-3-[3-(pyrrolidin-1-yl)propoxy]acridin-9-amine formate]
18.5 nM	COc1cc2c(NC3CC(=O)N(C4CCC4)C3)c3ccccc3nc2cc1OCCCN1CCCC1 (stereo not shown) [Entry 87, 1-cyclobutyl-4-({2-methoxy-3-[3-(pyrrolidin-1-yl)propoxy]acridin-9-yl}amino)pyrrolidin-2-one trifluoroacetate]
28.5 nM	CNc1c2ccccc2nc2cc(OCCCN(C)C)c(OC)cc12 [Entry 119, 3-[3-(dimethylamino)propoxy]-2-methoxy-N-methylacridin-9-amine trifluoroacetate]
19 nM	COc1cc2c(NCC3(C)CC3)c3c(nc2cc1OCCCN1CCCC1)CCC3 [Entry 44, 7-methoxy-N-[(1-methylcyclopropyl)methyl]-6-[3-(pyrrolidin-1-yl)propoxy]-1H,2H,3H-cyclopenta[b]quinolin-9-amine formate]
17 nM	COC(=O)N1CC(CNc2c3c(nc4cc(OCCCN5CCCC5)c(OC)cc24)CCC3)C1 [Entry 71, methyl 3-[({7-methoxy-6-[3-(pyrrolidin-1-yl)propoxy]-1H,2H,3H-cyclopenta[b]quinolin-9-yl}amino)methyl]azetidine-1-carboxylate formate]
134 nM	COc1cc2c(NCC(=O)O)c3ccccc3nc2cc1OCCCN1CCCC1 [Entry 104, 2-({2-methoxy-3-[3-(pyrrolidin-1-yl)propoxy]acridin-9-yl}amino)acetic acid formate]
14 nM	COc1cc2c(NCC3CC3)c3c(nc2cc1OCCCN1CCCC1)CCC3 [Entry 32, N-(cyclopropylmethyl)-7-methoxy-6-[3-(pyrrolidin-1-yl)propoxy]-1H,2H,3H-cyclopenta[b]quinolin-9-amine formate]
11.2 nM	COCCCNc1c2c(nc3cc(OCCCN4CCCC4)c(OC)cc13)CCC2 [Entry 73, 7-methoxy-N-(3-methoxypropyl)-6-[3-(pyrrolidin-1-yl)propoxy]-1H,2H,3H-cyclopenta[b]quinolin-9-amine formate]
46.4 nM	COc1cc2c(NC3CCC(=O)N(C)C3)c3c(nc2cc1OCCCN1CCCC1)CCC3 (stereo not shown) [Entry 58, 5-({7-methoxy-6-[3-(pyrrolidin-1-yl)propoxy]-1H,2H,3H-cyclopenta[b]quinolin-9-yl}amino)-1-methylpiperidin-2-one trifluoroacetate]
250 nM	CNc1c2c(nc3cc(OCCCN4CCC(F)C4)c(OC)cc13)CCC2 (stereo not shown) [Entry 29, 6-[3-(3-fluoropyrrolidin-1-yl)propoxy]-7-methoxy-N-methyl-1H,2H,3H-cyclopenta[b]quinolin-9-amine]
1.3 nM	CNc1c2ccccc2nc2cc(OCCCN3CCCC3)c(OC)cc12 [Entry 1, 2-methoxy-N-methyl-3-[3-(pyrrolidin-1-yl)propoxy]acridin-9-amine]
42 nM	COc1cc2c(O)c3ccccc3nc2cc1OCCCN1CCCC1 [Entry 6, 2-methoxy-3-[3-(pyrrolidin-1-yl)propoxy]acridin-9-ol formate]
33.1 nM	COc1cc2c(N[C@H]3C[C@@H](O)C3)c3c(nc2cc1OCCCN1CCCC1)CCC3 [Entry 57, (1s,3s)-3-({7-methoxy-6-[3-(pyrrolidin-1-yl)propoxy]-1H,2H,3H-cyclopenta[b]quinolin-9-yl}amino)cyclobutan-1-ol formate]
23.8 nM	COc1cc2c(NC(C)C)c3ncccc3nc2cc1OCCCN1CCCC1 [Entry 122, 8-methoxy-N-(propan-2-yl)-7-[3-(pyrrolidin-1-yl)propoxy]benzo[b]1,5-naphthyridin-10-amine formate]
